Results taken from ChEMBL document CHEMBL3988442, “University of Dundee, Small-Polar-MMV Screening Library” (2021).
Values joined by “and” are separate entries in the source; they are usually repeats but may differ in a detail not shown here. Equal entries are not always repeated.

Experiments:
[1] = In vitro enzyme assay to detect hydrolysis of chlorophenol red-beta-D-[…] directly proportional to the number of Toxoplasma stably expressing beta-galactosidase; format: functional, organism-based, Toxoplasma gondii; details: for IC50: Toxoplasma gondii
[2] = microbe, parasite or virus in culture; details: Mycobacterium tuberculosis, 72 h, read-out: pIC50 (converted)
[3] = microbe, parasite or virus in culture; details: Mycobacterium tuberculosis, 96 h, read-out: pIC50 (converted)

| SMILES | pIC50 [1] | IC50 [2] [µM] | IC50 [3] [µM] | IC50 [1] [µM] |
| --- | --- | --- | --- | --- |
| Cc1cc(C)n(-c2nc(NCCCO)c3c4c(sc3n2)CCCC4)n1 | 5.989 and 5.533 | 45.4 | 41.8 | – |
| Cc1ccc(C(=O)NCCCNCCCN(C)C)cn1 | – | – | – | > 50.1 |
| Cc1nnc2n1N=C(c1ccccc1)CS2 | – | – | – | > 50.1 |
| CN1CCCN(C(=O)COc2ccc(Br)cc2)CC1 | – | – | – | > 50.1 |
| NCC(O)c1ccc(-c2ccccc2)cc1 (stereo not drawn) | – | 104 | 97.4 | > 25.1 |
| CN[C@@H]1COc2ccccc2[C@H](O)C1 | – | – | – | > 50.1 |
| Cc1cc(NC(=O)C(C)C)n(-c2nc(C)c(C)c(=O)[nH]2)n1 | 5.713 | 4.11 | 9.46 | 1.51 |
| Cc1cc(C(=O)N2CCN(c3nc4c(C(C)C)cccc4s3)CC2)on1 | – | 21.3 | 38.5 | > 25.1 |
| CCn1cc(CN(C)S(=O)(=O)c2ccc(C(C)C)cc2)cn1 | – | 46.8 | 48.5 | > 50.1 |
| C=C/C=c1\c(=C/C)oc2c(NCc3ccccc3)nc(C)nc12 | – | 20.6 | 12.1 | 37.2 |
| C=C/C=c1\c(=C/C)oc2c(NCc3ccccc3)nc(CC)nc12 | – | 22 | 19.1 | 37.5 |
| CCCn1c(N2CCCC(C)C2)nc2c(C)nn(C)c2c1=O (stereo not drawn) | 4.506 | – | > 50.1 | 22.2 |
| CCNc1ncc2c(n1)CN(c1ccc(CC)cc1)C2=O | – | – | > 50.1 | > 50.1 |
| CCCc1nc(NCCc2ccccc2)c2c(n1)c(C)nn2CC | 4.958 | 48.8 | 38.5 | 9.84 |
| CCn1nc(C)c2nc(C(C)C)nc(NCC(C)C)c21 | – | 47.1 | 49.2 | 25.4 |
| CC(C)c1ccc(C(CN)N2CCc3sccc3C2)cc1 (stereo not drawn) | 5.076 | 20.4 | 24.8 | 13.4 |
| NC(CC1CCCC1)c1ccc(Oc2ccccc2)cc1 (stereo not drawn) | – | 27.4 | 24.2 | 5.29 |
| Brc1ccc(NCc2ccc(Cn3ccnc3)cc2)nc1 | – | 3.73 | 4.63 | 29.6 |
| CCc1nccn1CCNC1CCN(c2nc3ccc(Cl)cc3s2)CC1 | – | 34 | 18.4 | 8.99 |
| Fc1cccc(-c2cccc(N3CCC(NC4CCCOC4)CC3)c2)c1 (stereo not drawn) | – | 27.4 | 30.8 | 26.2 |
| Clc1cccc(-c2cccc(N3CCC(NC4CCOCC4)CC3)c2)c1 | – | 29.7 | 34.9 | 14.4 |
| O=C1CCCCN1c1ccc(S(=O)(=O)NC2CC2)cc1 | – | – | – | > 50.1 |
| COc1cccc(N2CCNCC2C)c1 (stereo not drawn) | – | > 501 | > 501 | > 50.1 |

| SMILES | pIC50 [1] | IC50 [2] [µM] | IC50 [3] [µM] | IC50 [1] [µM] |
| --- | --- | --- | --- | --- |
| O=C(CCNC(=O)c1ccccc1F)Nc1nccs1 | – | – | – | > 50.1 |
| Cc1ccc(C(=O)NCCN2CCOCC2)c(C)c1 | – | – | – | > 50.1 |
| Fc1ccccc1CN1CCn2ccnc2C1 | – | – | – | > 50.1 |
| Cn1cc(CN(C(=O)c2ccc(N)nc2)C2CC2)cn1 | – | – | – | > 50.1 |
| CC(C)(CO)C(N)c1ccccc1 (stereo not drawn) | – | – | – | > 50.1 |
| CCC(=O)NC1CCCc2nc(N(C)C)ncc21 (stereo not drawn) | – | – | – | > 50.1 |
| Nc1nnc(SCc2ccc(Cl)s2)[nH]1 | – | 307 | 313 | > 50.1 |
| NCCN1CCC(C(N)=O)CC1 | – | – | – | > 50.1 |
| O=C(Nc1ccc(Br)cn1)C1CCCNC1 (stereo not drawn) | – | – | – | > 50.1 |
| Cc1ncc(C(=O)N2C[C@@H]3CCCN[C@@H]3C2)c(C)n1 | – | – | – | > 50.1 |
| CC(C)(N)CN1CCN(c2cccc(Cl)c2)CC1 | – | 98.6 | 474 | > 50.1 |
| Cc1ccc(CNC(=O)C2CCCCC(=O)N2)o1 (stereo not drawn) | – | – | – | > 50.1 |
| CCn1nc(-c2ccc(F)cc2)oc1=O | – | – | – | > 50.1 |
| CC(=O)Nc1ccc(CN2CCCOC(C)C2)cc1 (stereo not drawn) | – | – | – | > 50.1 |
| NCCc1ccc(-n2cccn2)cc1 | – | 188 | 191 | > 50.1 |
| CCC(CC)(CCO)CNC(=O)c1cncc(C)c1 | – | – | – | > 50.1 |
| Nc1cccnc1NCc1cccnc1 | – | – | – | > 50.1 |
| Cc1ccc(C(=O)N2CCN(C(C)C(N)=O)CC2)s1 (stereo not drawn) | – | – | – | > 50.1 |
| CNc1cc(-c2cccc(OC)c2OC)nc(N)n1 | – | – | – | > 50.1 |
| NCCC1CSc2ccccc2O1 (stereo not drawn) | – | 129 | 170 | > 50.1 |
| OCCNc1nc2ccccc2s1 | – | – | – | > 50.1 |
| O=C(CC1CCCC1)NCCc1noc(CO)n1 | – | – | – | > 50.1 |
| CCC(CC)C(O)CNC(=O)NCC1CC1 (stereo not drawn) | – | – | – | > 50.1 |

| SMILES | pIC50 [1] | IC50 [2] [µM] | IC50 [3] [µM] | IC50 [1] [µM] |
| --- | --- | --- | --- | --- |
| O=C(NCc1nc(C2CC2)no1)Nc1nncs1 | – | – | – | > 50.1 |
| Nc1ccc(CN2CCN(CCO)CC2)cn1 | – | – | – | > 50.1 |
| Cc1cc(C)c(C#N)c(N2C[C@H](C3CC3)[C@@H](N)C2)n1 | – | 247 | > 501 | > 50.1 |
| CNC(=O)CCN1CC(Oc2ccc(C)cc2)C1 | – | – | – | > 50.1 |
| CCc1nc(C(C)(C)N)[nH]c(=O)c1C | – | – | – | > 50.1 |
| N[C@@H]1CC[C@H](C(=O)NCc2csc(N3CCCC3)n2)C1 | – | – | – | > 50.1 |
| CC(CN)C(=O)Nc1cn[nH]c1 (stereo not drawn) | – | – | – | > 50.1 |
| Cc1cc(=O)cc(C(=O)NCCC(C)n2ccnc2)o1 (stereo not drawn) | – | – | – | > 50.1 |
| Nc1nc(N)nc(CN2CCCC2c2cccs2)n1 (stereo not drawn) | – | 171 | > 501 | > 50.1 |
| CC1CCN(C(=O)CSc2nncs2)CC1 | – | 22.7 | 23.8 | > 50.1 |
| O=C(N[C@H]1COC[C@@H]1N1CCCCC1)c1cnc[nH]1 | – | – | – | > 50.1 |
| CS(=O)(=O)CCN1CCC(C(N)=O)CC1 | – | – | – | > 50.1 |
| CC1(C)CC(n2cccn2)C(C)(C)O1 (stereo not drawn) | – | – | – | > 50.1 |
| C[C@@H]1CN(C(=O)c2cc(F)cc(C#N)c2)C[C@]1(C)O | – | – | – | > 50.1 |
| CSCC(=O)NC(C1CCNCC1)[C@H]1C[C@@H](O)C1 (stereo partly drawn) | – | – | – | > 50.1 |
| CCN1CCN(Cc2nnnn2C2CC2)CC1 | – | – | – | > 50.1 |
| O=C(CN1CCN(C(=O)c2ccco2)CC1)NC1CC1 | – | – | – | > 50.1 |
| CCCNC(=O)NCCc1noc(-c2cccnc2)n1 | – | – | – | > 50.1 |
| CCNS(=O)(=O)c1csc(C(=O)Nc2cc(C)on2)c1 | – | – | – | > 50.1 |
| Cc1ccc(CN2CCC(C3CCNC3)CC2)nc1 (stereo not drawn) | – | – | – | > 50.1 |
| Cc1nccn1CCNc1cc(C2CC(O)C2)ncn1 (stereo not drawn) | – | – | – | > 50.1 |
| Cc1ccoc1C(=O)Nc1cccc(CO)n1 | – | – | – | > 50.1 |
| COc1ccc(CCNC(=O)NCCCC(N)=O)cc1 | – | – | – | > 50.1 |

| SMILES | pIC50 [1] | IC50 [2] [µM] | IC50 [3] [µM] | IC50 [1] [µM] |
| --- | --- | --- | --- | --- |
| CC1CCC(NCCO)CC1 (stereo not drawn) | – | – | – | > 50.1 |
| COc1ccc(S(=O)(=O)N(C)C)cc1NCC1CC1 | – | 299 | > 501 | > 50.1 |
| CC(C)(C)OC(=O)NCC1CC(C(N)=O)=NO1 (stereo not drawn) | – | – | – | > 50.1 |
| NC(=O)N1CCCCCC1C1CCNCC1 (stereo not drawn) | – | – | – | > 50.1 |
| CCOCC(=O)N1CCCn2ccnc2C1C(C)C (stereo not drawn) | – | – | – | > 50.1 |
| CN1C(=O)c2cccn2CC1CNC(=O)c1ccco1 (stereo not drawn) | – | – | – | > 50.1 |
| OCc1cc2ccccc2nc1N1CCSCC1 | – | 238 | 282 | > 50.1 |
| c1ccc(C2CNCCCO2)cc1 (stereo not drawn) | – | 166 | 306 | > 50.1 |
| CCC(=O)c1nccn1C | – | – | – | > 50.1 |
| CCCNS(=O)(=O)c1nc2nc(C)cc(C)n2n1 | – | – | – | > 50.1 |
| CCC(CC)(CC)SCC(=O)N1CCNC(=O)C1 | – | – | – | > 50.1 |
| CCNC(=O)CN1CCCC(c2nccn2CC)C1 (stereo not drawn) | – | – | – | > 50.1 |
| O=C(NCc1ccc2c(c1)OCO2)n1ccnc1 | – | – | – | > 50.1 |
| COc1ncccc1-c1csc(NCCSC)n1 | – | 101 | 284 | > 50.1 |
| Cc1cc2cc(C(=O)N3CC[C@@H](N)[C@H](O)C3)ccc2o1 | – | – | – | > 50.1 |
| O=C(CN1CCC=C(F)C1)Nc1cccc(F)c1 | – | 300 | 278 | > 50.1 |
| CN(C)[C@@H]1CN(C(=O)c2ccccc2Br)C[C@H]1CO | – | – | – | > 50.1 |
| Cc1cc(C(=O)NCCc2noc(C3CC3)n2)nn1C | – | – | – | > 50.1 |
| CCN1C[C@H](NC(=O)c2snnc2C(C)C)[C@@H](OC)C1 | – | – | – | > 50.1 |
| CS(=O)(=O)NCc1ccc(CN2CCCC2=O)cc1 | – | – | – | > 50.1 |
| c1nc(N2CCNCC2)c2sccc2n1 | – | – | – | > 50.1 |
| Cc1cnc(N)c(C)c1 | – | – | – | > 50.1 |
